Results reported in patent US8143308B2, “Synthesis of oligo/poly(catechins) and methods of use” (University of Massachusetts Lowell, priority 2005, dated 2012).

How the values were obtained:
[1] = Stability of activity after dissolving in solvent
[2] = test system: MCF-7 (HTB-22, low metastatic breast adenocarcinoma) cells; assay: Cell proliferation assay, MCF-7 low metastatic breast adenocarcinoma cells; format: cell-based, human; conditions: another experiment; only at high doses effective
[3] = test system: MCF-7 and MDA-MB-231 cells; assay: Anticancer activity in vitro, summary statements for breast cancer cells; format: cell-based, human; conditions: MCF-7 and MDA-MB-231 in vitro
[4] = test system: MCF12A (CRL#10782, normal mammary epithelial) cells; assay: Cell proliferation assay, MCF12A normal mammary epithelial cells; conditions: another experiment

(−)-epigallocatechin gallate [EGCG]
time to loss of activity [1]: ≤ 1 h | dose at which effective on MCF-7 [2]: 9.2 µg/mL | dose at which active / effective [3]: 1 to 40 µg/mL | inhibition of normal MCF-12A cells (in words) ([4]; 5.0 μg/ml): inhibited | inhibition of normal MCF-12A cells (in words) ([4]; 40 μg/ml): inhibited
